# Read-outs that look alike come from different tables or passages of the source.
# What was measured:
# CK1ε = CK1ε (Homo sapiens, UniProt P49674); experiment: CK1ε kinase assay (Caliper LabChip electrophoretic separation of fluoresceinated peptide substrate and product); type: biochemical; conditions: 200 pM CK1ε, 50 μM ATP, 1.5 μM peptide, 22 hours at room temperature
# Method in brief: (§1)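 Reactions ran 22 hours at room temperature and were stopped with EDTA. Phosphorylated product and unphosphorylated substrate were then separated electrophoretically. Compounds were tested at eleven concentrations, and IC50 values came from non-linear regression.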
# CK1δ = CK1δ (Homo sapiens, UniProt P48730); experiment: CK1δ kinase assay (Caliper LabChip electrophoretic separation of fluoresceinated peptide substrate and product); type: biochemical; conditions: 200 pM CK1δ, 50 μM ATP, 1.5 μM peptide, 22 hours at room temperature
# Sequence of CK1δ (P48730 whole entry): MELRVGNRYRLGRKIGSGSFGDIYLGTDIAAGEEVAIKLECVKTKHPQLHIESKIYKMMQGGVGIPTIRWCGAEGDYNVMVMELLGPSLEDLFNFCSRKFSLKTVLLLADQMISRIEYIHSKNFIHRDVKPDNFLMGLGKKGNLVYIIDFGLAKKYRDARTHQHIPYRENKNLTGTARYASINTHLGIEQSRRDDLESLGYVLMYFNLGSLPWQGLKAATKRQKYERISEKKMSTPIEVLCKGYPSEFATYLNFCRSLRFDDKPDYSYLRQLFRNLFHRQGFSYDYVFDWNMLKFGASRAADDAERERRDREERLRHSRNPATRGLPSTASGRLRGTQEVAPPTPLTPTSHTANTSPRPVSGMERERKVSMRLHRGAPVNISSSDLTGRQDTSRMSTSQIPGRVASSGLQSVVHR
# Method in brief: as §1
# Sequence of CK1ε (P49674 whole entry): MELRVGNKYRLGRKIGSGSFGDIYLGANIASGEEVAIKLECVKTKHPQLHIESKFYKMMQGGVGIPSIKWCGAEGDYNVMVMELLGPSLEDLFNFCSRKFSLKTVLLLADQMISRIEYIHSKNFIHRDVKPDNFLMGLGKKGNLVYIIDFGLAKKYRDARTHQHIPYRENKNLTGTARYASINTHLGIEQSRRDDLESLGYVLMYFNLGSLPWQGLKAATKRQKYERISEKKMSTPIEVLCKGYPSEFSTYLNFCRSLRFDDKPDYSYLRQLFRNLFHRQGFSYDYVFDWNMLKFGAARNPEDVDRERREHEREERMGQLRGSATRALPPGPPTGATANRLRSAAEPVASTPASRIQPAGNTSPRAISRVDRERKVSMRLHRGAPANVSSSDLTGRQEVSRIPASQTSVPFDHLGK
SMILES,IC50 (CK1ε; read-out: CK1ε IC50 range),IC50 (CK1δ; read-out: CK1δ IC50 range),IC50 (CK1ε; read-out: CK1ε),IC50 (CK1δ; read-out: CK1δ)
"COC12CCC(NC(=O)N3CCn4nc(-c5cccc(Cl)c5)c(C(N)=O)c4C3)(CC1)C(=O)C2 [Compound A76, 2-(3-Chlorophenyl)-N^5-(4-methoxy-2-oxobicyclo[2.2.2]octan-1-yl)-6,7-dihydropyrazolo[1,5-a]pyrazine-3,5(4H)-dicarboxamide]",0.01 to 10 nM,0.01 to 10 nM,–,–
"CC(C)(CC#N)NC(=O)N1CCn2nc(-c3ccc(F)c(Cl)c3)c(C(N)=O)c2C1 [Compound 186, 2-(3-Chloro-4-fluorophenyl)-N^5-(1-cyano-2-methylpropan-2-yl)-6,7-dihydropyrazolo [1,5-a]pyrazine-3,5(4H)-dicarboxamide]",0.01 to 10 nM,0.01 to 10 nM,–,–
"CC1(NC(=O)N2CCn3nc(-c4cccc(Cl)c4)c(C(N)=O)c3C2)CC2(CC2)C1 [Compound 318, 2-(3-Chlorophenyl)-N^5-(5-methylspiro[2.3]hexan-5-yl)-6,7-dihydropyrazolo[1,5-a]pyrazine-3,5(4H)-dicarboxamide]",0.01 to 10 nM,0.01 to 10 nM,–,–
"CC(C)(C)NC(=O)N1Cc2c(C(N)=O)c(-c3ccc(F)c(Cl)c3)nn2C(C(C)(C)O)C1 (centres unmarked) [Compound A18, N^5-(tert-Butyl)-2-(3-chloro-4-fluorophenyl)-7-(2-hydroxypropan-2-yl)-6,7-dihydropyrazolo[1,5-a]pyrazine-3,5(4H)-dicarboxamide]",0.01 to 10 nM,0.01 to 10 nM,–,–
"CC(C)(NC(=O)N1CCn2nc(-c3cccc(Cl)c3)c(C(N)=O)c2C1)C1CCC(F)(F)CC1 [Compound 233, 2-(3-Chlorophenyl)-N^5-(2-(4,4-difluorocyclohexyl)propan-2-yl)-6,7-dihydropyrazolo[1,5-a] pyrazine-3,5(4H)-dicarboxamide]",0.01 to 10 nM,0.01 to 10 nM,–,–
"CC(C)(C)NC(=O)N1CCn2nc(-c3cccc(F)c3)c(C(N)=O)c2C1 [Compound 4, N^5-(tert-Butyl)-2-(3-fluorophenyl)-6,7-dihydropyrazolo[1,5-a]pyrazine-3,5(4H)-dicarboxamide]",10 to 100 nM,10 to 100 nM,38.1 nM,10.9 nM
"CC1Cn2nc(-c3ccc(F)c(Cl)c3)c(C(N)=O)c2CN1C(=O)NC(C)(C)C (single isomer, unassigned) [Compound 340, N^5-(tert-Butyl)-2-(3-chloro-4-fluorophenyl)-6-methyl-6,7-dihydropyrazolo[1,5-a]pyrazine-3,5(4H)-dicarboxamide]",10 to 100 nM,0.01 to 10 nM,–,–
"C[C@@]12C[C@H]3C[C@@](Cl)(C1)C[C@](NC(=O)N1CCn4nc(-c5ccc(Cl)c(Cl)c5)c(C(N)=O)c4C1)(C3)C2 [Compound A93, N^5-((1S,3R,5S,7R)-3-Chloro-5-methyladamantan-1-yl)-2-(3,4-dichlorophenyl)-6,7-dihydropyrazolo[1,5-a]pyrazine-3,5(4H)-dicarboxamide]",0.01 to 10 nM,0.01 to 10 nM,–,–
"CO[C@H]1C[C@H](NC(=O)N2CCn3nc(-c4cccc(Cl)c4)c(C(N)=O)c3C2)C1 [Compound 178, 2-(3-Chlorophenyl)-N^5-((1r,3r)-3-methoxycyclobutyl)-6,7-dihydropyrazolo [1,5-a]pyrazine-3,5(4H)-dicarboxamide]",0.01 to 10 nM,0.01 to 10 nM,–,–
"CC1(NC(=O)N2Cc3c(C(N)=O)c(-c4ccc(F)c(Cl)c4)nn3C(CF)C2)CC(F)(F)C1 (centres unmarked) [Compound A9, 2-(3-Chloro-4-fluorophenyl)-N^5-(3,3-difluoro-1-methylcyclobutyl)-7-(fluoromethyl)-6,7-dihydropyrazolo[1,5-a]pyrazine-3,5(4H)-dicarboxamide]",0.01 to 10 nM,0.01 to 10 nM,–,–
"CC1(NC(=O)N2CCn3nc(-c4ccc(Cl)c(Cl)c4)c(C(N)=O)c3C2)CC(F)(F)C1 [Compound 297, 2-(3,4-Dichlorophenyl)-N^5-(3,3-difluoro-1-methylcyclobutyl)-6,7-dihydropyrazolo[1,5-a] pyrazine-3,5(4H)-dicarboxamide]",0.01 to 10 nM,0.01 to 10 nM,0.3 nM,0.5 nM
"NC(=O)c1c(-c2cccc(F)c2)nn2c1CN(C(=O)Nc1cc(F)cc(F)c1F)CC2 [Compound 27, 2-(3-Fluorophenyl)-N^5-(2,3,5-trifluorophenyl)-6,7-dihydropyrazolo[1,5-a]pyrazine-3,5(4H)-dicarboxamide]",10 to 100 nM,10 to 100 nM,–,–
"CC(C)(NC(=O)N1CCn2nc(-c3cccc(Cl)c3)c(C(N)=O)c2C1)c1ccc(C#N)cc1 [Compound 173, 2-(3-Chlorophenyl)-N^5-(2-(4-cyanophenyl)propan-2-yl)-6,7-dihydropyrazolo[1,5-a] pyrazine-3,5(4H)-dicarboxamide]",0.01 to 10 nM,0.01 to 10 nM,–,–
"NC(=O)c1c(-c2cc(Cl)cc(Cl)c2)nn2c1CN(C(=O)NC1CC(F)(F)C1)CC2 [Compound 293, 2-(3,5-Dichlorophenyl)-N^5-(3,3-difluorocyclobutyl)-6,7-dihydropyrazolo[1,5-a] pyrazine-3,5(4H)-dicarboxamide]",0.01 to 10 nM,0.01 to 10 nM,–,–
